The results in this text go back to patent US20140137274A1, “INDUCED MALIGNANT STEM CELLS” (LSIP, LLC, priority 2011, published 2014).

The data set concerns cancer-related miRNAs. In words: miRNA expression microarray (SurePrint G3 Human miRNA Microarray Rel.16.0). The note with it: logarithmic (log2) value of quotient vs control. As for the experimental part: Total RNA was prepared from each of six induced malignant stem cells, one induced non-malignant stem cell, and one induced pluripotent stem cell as mentioned above, and the prepared total RNAs were used in Agilent SurePrint G3 Human miRNA Microarray Rel.16.0 to detect abnormal expression (increased or reduced/lost expression) of non-coding RNAs such as endogenous cancer-related microRNAs in the induced malignant stem cells.
Complete Labeling Reagent and Hyb Kit in accordance with the Agilent protocol. To be specific, each sample total RNA (100 ng) was dephosphorylated with Calf Intestine Alkaline Phosphatase (CIP), and the RNA molecule on its 3′ terminal side was labeled with a cyanine 3-cytidine bisphosphate (pCp-Cy3) molecule using T4 RNA Ligase.
The RNA samples labeled in (14-2-3) were hybridized with SurePrint G3 Human miRNA Microarray Rel.16.0 using Agilent miRNA Complete Labeling Reagent and Hyb Kit. To be specific, each of the labeled RNAs was added to a hybridization buffer and allowed to hybridize on SurePrint G3 Human miRNA Microarray Rel.16.0 for 20 hours. After washing, the DNA microarray image was scanned by Agilent Microarray Scanner, and fluorescence signals from the spots were digitized by Feature Extraction Software (v.10.7.3.1).
The miRNAs were annotated using miRBase Release 18, and hybridization was performed onto a microarray chip with the probes designed for the miRNAs shown in the following table (refer to Table 31 below).
In this analysis, the normalized value of the digital data for the hybridization of a subject cell (induced malignant stem cell) sample was divided by the normalized value from the digital data for the hybridization of a control cell sample and the quotient was used as a measure of variation in expression. Probes for which the quotients deviated from 1 (i.e., log21=0) were considered to indicate a variation in expression; those showing quotients greater than 2 (log22=1) or smaller than 0.5 (log20.5=−1) were selected. For each of the comparisons shown below, the genes shown in the tyrosine kinase list and those shown in the cancer drug targets list were analyzed to make respective lists of the genes showing quotients greater than 2 (log22=1) or smaller than 0.5 (log20.5=−1), as compared with the quotient for the control (taken as 1). The analysis was performed using GeneSpring 12.1.
The Normalized column represents a variation in expression in logarithmic values.

For the substance “hsa-miR-134 (CCCCTCTGGTCAA; chemistry not given here)”, the “Normalized (variation in microRNA expression, subject cell / control cell)” value ([Ngc1_7]vs [Nib2_17]) is on record as 2.736; the “Normalized (variation in microRNA expression, subject cell / control cell)” value ([gc2_1]vs [Nfb2_17]) was determined as 1.853; the “Normalized (variation in microRNA expression, subject cell / control cell)” value ([gc2_5]vs [Nfb2_17]) stood at 1.299; the “Normalized (variation in microRNA expression, subject cell / control cell)” value ([gc2_10]vs +Nfb2_17]) was 2.829; the “Normalized (variation in microRNA expression, subject cell / control cell)” value ([gcl_6]vs [Nfb2_17]) is given as 2.883.

Regarding “hsa-miR-183-5p (AGTGAATTCTACCAGTGCCA; chemistry not given here)”, the “Normalized (variation in microRNA expression, subject cell / control cell)” value ([cc4_c]vs [Nfb2_17]) turned out to be 1.285 and the “Normalized (variation in microRNA expression, subject cell / control cell)” value ([gc2_10]vs +Nfb2_17]) is listed as −1.886.

Take “hsa-miR-193b-3p (AGCGGGACTTTGAGGG; chemistry not given here)”: the “Normalized (variation in microRNA expression, subject cell / control cell)” value ([gc2_10]vs +Nfb2_17]) was determined as 1.098.

Turning to “hsa-miR-200c-3p (TCCATCATTACCCGG; chemistry not given here)”, the “Normalized (variation in microRNA expression, subject cell / control cell)” value is reported as 1.59 ([Ngc1_7]vs [Nib2_17]); 4.536 ([cc4_c]vs [Nfb2_17]); −1.393 ([gc2_1]vs [Nfb2_17]); −1.715 ([gc2_10]vs +Nfb2_17]); 2.005 ([gcl_6]vs [Nfb2_17]).

Consider “hsa-miR-205-5p (CAGACTCCGGTGGAAT; chemistry not given here)”, for which the “Normalized (variation in microRNA expression, subject cell / control cell)” value was −1.315 ([Ngc1_7]vs [Nib2_17]), −1.577 ([gc2_1]vs [Nfb2_17]), −2.341 ([gc2_5]vs [Nfb2_17]) and −2.908 ([gc2_10]vs +Nfb2_17]).

On to “hsa-miR-210 (TCAGCCGCTGTCACAC; chemistry not given here)”, for which the “Normalized (variation in microRNA expression, subject cell / control cell)” value reads like this: ([Ngc1_7]vs [Nib2_17]) 1.643; ([cc4_c]vs [Nfb2_17]) 3.796; ([gc2_5]vs [Nfb2_17]) −1.628; ([gcl_6]vs [Nfb2_17]) 2.036.

Consider “hsa-miR-222-3p (ACCCAGTAGCCAG; chemistry not given here)”, for which the “Normalized (variation in microRNA expression, subject cell / control cell)” value ([cc4_c]vs [Nfb2_17]) is on record as 1.861.

In the case of “hsa-miR-372 (ACGCTCAAATGTCGCAGC; chemistry not given here)”, the “Normalized (variation in microRNA expression, subject cell / control cell)” value runs as follows: ([Ngc1_7]vs [Nib2_17]) −3.388; ([gc1_6]vs [Ngc1_7]) 2.003; ([gcl_6]vs [Nfb2_17]) −1.385.

Take “hsa-miR-373-3p (ACACCCCAAAATCGAAGC; chemistry not given here)”: the “Normalized (variation in microRNA expression, subject cell / control cell)” value ([Ngc1_7]vs [Nib2_17]) is −2.818; the “Normalized (variation in microRNA expression, subject cell / control cell)” value ([gc1_6]vs [Ngc1_7]) was 1.725; the “Normalized (variation in microRNA expression, subject cell / control cell)” value ([gc2_5]vs [Nfb2_17]) is recorded as −2.93; the “Normalized (variation in microRNA expression, subject cell / control cell)” value ([gc2_10]vs +Nfb2_17]) was −3.202; the “Normalized (variation in microRNA expression, subject cell / control cell)” value ([gcl_6]vs [Nfb2_17]) is given as −1.094.

For the substance “hsa-miR-I7-5p (CTACCTGCACTGTAAGC; chemistry not given here)”, the “Normalized (variation in microRNA expression, subject cell / control cell)” value ([gc2_10]vs +Nfb2_17]) is −3.619.

Regarding “hsa_miR-301a-3p (GCTTTGACAATACTATTGCAC; chemistry not given here)”, under “[cc4_c]vs [Nfb2_17]”, the “Normalized (variation in microRNA expression, subject cell / control cell)” value is reported as −1.212.
